# Values of other authors in US20080076825A1, “Novel Crystalline Forms of Entacapone and Production Thereof” (priority 2003, published 2008).
# Key:
# [1] = commercially available entacapone
# Parkinson's disease = settings: in combination with levodopa and a decarboxylase inhibitor; by lengthening the dosage interval and/or reducing the single dose
smiles,measurement,setting,value
"CCN(CC)C(=O)/C(C#N)=C/c1cc(O)c(O)c([N+](=O)[O-])c1 [entacapone, (E)-N,N-diethyl-2-cyano-3-(3,4-dihydroxy-5-nitrophenyl)acrylamide]",bioavailability,[1],35%
same,reduction of the amount of L-dopa to be administered,Parkinson's disease,10-30%
